Where two headings read alike, the source gives them in different places.
Columns and labels:
TNFα production = TNFα production by Thioglycollate induced macrophages; assay type: cell-based, mouse (C57BL/6); parameters: TNFα production, 6 h / TNFα production, 24 h: unit not given here; details: for inhibition at 2 µg/mL / inhibition at 4 µg/mL / inhibition at 6 µg/mL: Mus musculus, Macrophage
Source text: […] […] IFN-γ and IFN-α were purchased from Boehringer Mannheim, Germany.
Thioglycoiate-elicited peritoneal macrophages from C57BL/6 mice.

[1] = system: nitric oxide (NO) generation; assay: nitric oxide (NO) generation by Thioglycollate induced macrophages, Griess reagent; assay type: cell-based, mouse
[2] = LPS 1 μg/ml + IFNγ 10 U/ml, CBD 2 μg/ml, 24 h
[3] = LPS 1 μg/ml + IFNγ 10 U/ml, CBD 2 μg/ml
[4] = LPS 1 μg/ml + IFNγ 10 U/ml, CBD 4 (μg/ml)
[5] = LPS 1 μg/ml + IFNγ 10 U/ml, CBD 6 (μg/ml)
[6] = LPS 1 μg/ml + IFNγ 10 U/ml, CBD 8 (μg/ml)

C=C(C)[C@@H]1CCC(C)=C[C@H]1c1c(O)cc(CCCCC)cc1O [CBD, Cannabidiol]
TNFα production, 6 h (TNFα production; LPS 1 μg/ml + IFNγ 10 U/ml, CBD 2 μg/ml, 6 h): 744 | % INHIBITION of TNFα production, 24 h (TNFα production; [2]): enhanced 72% | TNFα production, 24 h (TNFα production; [2]): 4578 | TNFα production, 6 h (TNFα production; LPS 1 μg/ml + IFNγ 10 U/ml, CBD 4 μg/ml, 6 h): 478 | TNFα production, 6 h (TNFα production; LPS 1 μg/ml + IFNγ 10 U/ml, CBD 6 μg/ml, 6 h): 548 | TNFα production, 24 h (TNFα production; LPS 1 μg/ml + IFNγ 10 U/ml, CBD 4 (μg/ml), 24 h): 437 | TNFα production, 24 h (TNFα production; LPS 1 μg/ml + IFNγ 10 U/ml, CBD 6 (μg/ml), 24 h): 207 | TNFα production, 6 h (TNFα production; LPS 1 μg/ml, CBD 2 μg/ml, 6 h): 543 | TNFα production, 6 h (TNFα production; LPS 1 μg/ml, CBD 4 μg/ml, 6 h): 271 | TNFα production, 6 h (TNFα production; LPS 1 μg/ml, CBD 6 μg/ml, 6 h): 290 | TNFα production, 24 h (TNFα production; LPS 1 μg/ml, CBD 2 (μg/ml), 24 h): 90 | TNFα production, 24 h (TNFα production; LPS 1 μg/ml, CBD 4 (μg/ml), 24 h): 36 | TNFα production, 24 h (TNFα production; LPS 1 μg/ml, CBD 6 (μg/ml), 24 h): 34 | inhibition at 2 µg/mL (TNFα production; 6 h, LPS 1 μg/ml + IFNγ 10 U/ml, CBD 2 μg/ml, 6 h, read-out: % INHIBITION of TNFα production, 6 h): 0% | inhibition at 4 µg/mL (TNFα production; 6 h, LPS 1 μg/ml + IFNγ 10 U/ml, CBD 4 μg/ml, 6 h, read-out: % INHIBITION of TNFα production, 6 h): 33% | inhibition at 6 µg/mL (TNFα production; 6 h, LPS 1 μg/ml + IFNγ 10 U/ml, CBD 6 μg/ml, 6 h, read-out: % INHIBITION of TNFα production, 6 h): 24% | inhibition at 2 µg/mL (TNFα production; 6 h, LPS 1 μg/ml, CBD 2 μg/ml, 6 h, read-out: % INHIBITION of TNFα production, 6 h): 9% | inhibition at 4 µg/mL (TNFα production; 6 h, LPS 1 μg/ml, CBD 4 μg/ml, 6 h, read-out: % INHIBITION of TNFα production, 6 h): 54% | inhibition at 6 µg/mL (TNFα production; 6 h, LPS 1 μg/ml, CBD 6 μg/ml, 6 h, read-out: % INHIBITION of TNFα production, 6 h): 51% | inhibition at 4 µg/mL (TNFα production; 24 h, LPS 1 μg/ml + IFNγ 10 U/ml, CBD 4 μg/ml, 24 h, read-out: % INHIBITION of TNFα production, 24 h): 84% | inhibition at 6 µg/mL (TNFα production; 24 h, LPS 1 μg/ml + IFNγ 10 U/ml, CBD 6 μg/ml, 24 h, read-out: % INHIBITION of TNFα production, 24 h): 92% | inhibition at 2 µg/mL (TNFα production; 24 h, LPS 1 μg/ml, CBD 2 μg/ml, 24 h, read-out: % INHIBITION of TNFα production, 24 h): 67% | inhibition at 4 µg/mL (TNFα production; 24 h, LPS 1 μg/ml, CBD 4 μg/ml, 24 h, read-out: % INHIBITION of TNFα production, 24 h): 87% | inhibition at 6 µg/mL (TNFα production; 24 h, LPS 1 μg/ml, CBD 6 μg/ml, 24 h, read-out: % INHIBITION of TNFα production, 24 h): 88% | effect on TNFα production (in words) (TNFα production; low concentrations of CBD): enhance TNFα production | effect on TNFα production (in words) (TNFα production; summary of Table 1): inhibits TNFα production | % INHIBITION of NO, 24 h [1, 3]: 14% | NO, 24 h [1, 3]: 12 nM | NO, 48 h ([1]; LPS 1 μg/ml + IFNγ 10 U/ml, CBD 2 (μg/ml)): 25.4 nM | % INHIBITION of NO, 24 h [1, 4]: 51% | NO, 24 h [1, 4]: 6.9 nM | NO, 48 h [1, 4]: 21.3 nM | % INHIBITION of NO, 24 h [1, 5]: 61% | NO, 24 h [1, 5]: 5.5 nM | NO, 48 h [1, 5]: 18.1 nM | % INHIBITION of NO, 24 h [1, 6]: 99% | NO, 24 h [1, 6]: 0.2 nM | % INHIBITION of NO, 48 h [1, 6]: 85% | NO, 48 h [1, 6]: 3.1 nM | % INHIBITION of NO, 24 h ([1]; LPS 1 μg/ml, CBD 2 (μg/ml)): 32% | NO, 24 h ([1]; LPS 1 μg/ml, CBD 2 (μg/ml)): 3.7 nM | % INHIBITION of NO, 48 h ([1]; LPS 1 μg/ml, CBD 2 (μg/ml)): 9%

Source: patent publication US6410588B1, “Use of cannabinoids as anti-inflammatory agents” (priority 1998, dated 2002)
